Results: publication PMC9154192 (PLoS Biology, 2022)
Read-outs that look alike come from different tables or passages of the source. Marks after values point to notes of the source that are not given here.

Type: in vivo, SD rats
Protocol: Toxicity studies were conducted at Biotoxtech (Korea) under review and approval from IACUC (170842, 180144, 170889) of Biotoxtech. All animals used in the toxicity test were purchased from OrientBio (Korea).
A subchronic toxicity study was performed for PP2S. Female and male rats were divided into a control group (0 mg/kg/day, n = 15), a low-dose group (167 mg/kg/day, n = 10), a medium-dose group (500 mg/kg/day, n = 10), and a high-dose group (1,500 mg/kg/day, n = 15), respectively. Thus, there were a total of 8 groups. The drug was administered by oral gavage at 10 mL/kg body weight daily for 4 weeks. Five animals each in the control and high-dose groups continued their treatments for 2 more weeks. Clinical symptoms were observed, and body weight was measured during the test period for a total of 6 weeks; 0.5% methyl cellulose 1,500 cP (Sigma, USA) in water for injection (JW Pharmaceutical, Korea) was used as a vehicle. Control animals were treated with only the same volume of the vehicle.
Organ weights were measured while conducting a 4-week repeated oral toxicity study for PP2S. For all animals, wet weight of the following organs were measured, and the relative organ weight ratio to the fasted body weight was calculated. Organs with left and right sides were weighed together. […] In addition, changes observed with statistical significance in females of the recovery group were minor changes, which were not observed in the main test group. They were not accompanied by other related changes. Thus, they were judged to have no toxicological significance.

[1] = female, 167 mg/kg, dosing period
[2] = female, 500 mg/kg, dosing period
[3] = female, 1,500 mg/kg, dosing period
[4] = female, 1,500 mg/kg, recovery period
[5] = male, 1,500 mg/kg, dosing period
[6] = male, 1,500 mg/kg, recovery period
[7] = up to 1,500 mg/kg/day oral, 4 weeks of administration and 2 weeks of recovery

## CCCCOc1ccc2cc(CN3C(=O)CC[C@H]3C(=O)OC)c3cc(OC)c(OC)cc3c2c1 [PP2S, Methyl (S)-1-((3-butoxy-6,7-dimethoxyphenanthren-9-yl)methyl)-5-oxopyrrolidine-2-carboxylate]
All administration groups, male and female, main test and recovery group
  effect on organ weights: effect of the test substance was not recognized
[1]
  B.W. (mean): 218.0 g
  Mean absolute organ weight, Adrenal: 0.0775 g
  Mean absolute organ weight, Heart: 0.87 g
  Mean absolute organ weight, Kidney: 1.77 g
  Mean absolute organ weight, Liver: 6.63 g
  Mean absolute organ weight, Lung: 1.09 g
  Mean absolute organ weight, Ovary: 0.0898 g
  Mean absolute organ weight, Pituitary: 0.0140 g
  Mean absolute organ weight, Spleen: 0.50 g
  Mean absolute organ weight, Uterus: 0.52 g
  Mean relative organ weight, Adrenal: 0.0357 g/100g body weight
  Mean relative organ weight, Brain: 0.83 g/100g body weight
  Mean relative organ weight, Heart: 0.40 g/100g body weight
  Mean relative organ weight, Kidney: 0.81 g/100g body weight
  Mean relative organ weight, Liver: 3.05 g/100g body weight
  Mean relative organ weight, Lung: 0.50 g/100g body weight
  Mean relative organ weight, Ovary: 0.0410 g/100g body weight
  Mean relative organ weight, Pituitary: 0.0065 g/100g body weight
  Mean relative organ weight, Spleen: 0.23 g/100g body weight
  Mean relative organ weight, Uterus: 0.24 g/100g body weight
[2]
  B.W. (mean): 224.1 g
  Mean absolute organ weight, Adrenal: 0.0755 g
  Mean absolute organ weight, Heart: 0.89 g
  Mean absolute organ weight, Kidney: 1.70 g
  Mean absolute organ weight, Liver: 6.67 g
  Mean absolute organ weight, Lung: 1.10 g
  Mean absolute organ weight, Ovary: 0.0846 g
  Mean absolute organ weight, Pituitary: 0.0139 g
  Mean absolute organ weight, Spleen: 0.47 g
  Mean absolute organ weight, Uterus: 0.53 g
  Mean relative organ weight, Adrenal: 0.0337 g/100g body weight
  Mean relative organ weight, Brain: 0.78 g/100g body weight
  Mean relative organ weight, Heart: 0.40 g/100g body weight
  Mean relative organ weight, Kidney: 0.76 g/100g body weight
  Mean relative organ weight, Liver: 2.97 g/100g body weight
  Mean relative organ weight, Lung: 0.49 g/100g body weight
  Mean relative organ weight, Ovary: 0.0381 g/100g body weight
  Mean relative organ weight, Pituitary: 0.0062 g/100g body weight
  Mean relative organ weight, Spleen: 0.21 g/100g body weight
  Mean relative organ weight, Uterus: 0.24 g/100g body weight
[3]
  B.W. (mean): 217.3 g
  Mean absolute organ weight, Adrenal: 0.0730 g
  Mean absolute organ weight, Brain: 1.86 g
  Mean absolute organ weight, Heart: 0.84 g
  Mean absolute organ weight, Kidney: 1.72 g
  Mean absolute organ weight, Liver: 6.49 g
  Mean absolute organ weight, Lung: 1.11 g
  Mean absolute organ weight, Ovary: 0.0874 g
  Mean absolute organ weight, Pituitary: 0.0139 g
  Mean absolute organ weight, Spleen: 0.48 g
  Mean absolute organ weight, Uterus: 0.47 g
  Mean relative organ weight, Adrenal: 0.0335 g/100g body weight
  Mean relative organ weight, Brain: 0.84 g/100g body weight
  Mean relative organ weight, Heart: 0.38 g/100g body weight
  Mean relative organ weight, Kidney: 0.79 g/100g body weight
  Mean relative organ weight, Liver: 2.98 g/100g body weight
  Mean relative organ weight, Lung: 0.51 g/100g body weight
  Mean relative organ weight, Ovary: 0.0402 g/100g body weight
  Mean relative organ weight, Pituitary: 0.0064 g/100g body weight
  Mean relative organ weight, Spleen: 0.22 g/100g body weight
  Mean relative organ weight, Uterus: 0.22 g/100g body weight
[4]
  B.W. (mean): 248.7 g
  Mean absolute organ weight, Adrenal: 0.0723 g
  Mean absolute organ weight, Brain: 1.86 g
  Mean absolute organ weight, Heart: 0.91 g
  Mean absolute organ weight, Kidney: 1.73 g
  Mean absolute organ weight, Liver: 7.01 * g
  Mean absolute organ weight, Lung: 1.17 * g
  Mean absolute organ weight, Ovary: 0.1012 g
  Mean absolute organ weight, Pituitary: 0.0154 g
  Mean absolute organ weight, Spleen: 0.54 g
  Mean absolute organ weight, Uterus: 0.54 g
  Mean relative organ weight, Adrenal: 0.0291 g/100g body weight
  Mean relative organ weight, Brain: 0.75 g/100g body weight
  Mean relative organ weight, Heart: 0.37 g/100g body weight
  Mean relative organ weight, Kidney: 0.69 g/100g body weight
  Mean relative organ weight, Liver: 2.81 g/100g body weight
  Mean relative organ weight, Lung: 0.48 g/100g body weight
  Mean relative organ weight, Ovary: 0.0407 g/100g body weight
  Mean relative organ weight, Pituitary: 0.0062 g/100g body weight
  Mean relative organ weight, Spleen: 0.22 g/100g body weight
  Mean relative organ weight, Uterus: 0.22 g/100g body weight
male, 167 mg/kg, dosing period
  B.W. (mean): 363.4 g
  Mean absolute organ weight, Adrenal: 0.0619 g
  Mean absolute organ weight, Brain: 1.79 g
  Mean absolute organ weight, Heart: 1.33 g
  Mean absolute organ weight, Kidney: 2.59 g
  Mean absolute organ weight, Liver: 10.38 g
  Mean absolute organ weight, Lung: 1.42 g
  Mean absolute organ weight, Pituitary: 0.0109 g
  Mean absolute organ weight, Prostate: 0.40 g
  Mean absolute organ weight, Spleen: 0.69 g
  Mean absolute organ weight, Testis: 3.22 g
  Mean relative organ weight, Adrenal: 0.0170 g/100g body weight
  Mean relative organ weight, Brain: 0.54 g/100g body weight
  Mean relative organ weight, Heart: 0.37 g/100g body weight
  Mean relative organ weight, Kidney: 0.72 g/100g body weight
  Mean relative organ weight, Liver: 2.86 g/100g body weight
  Mean relative organ weight, Lung: 0.39 g/100g body weight
  Mean relative organ weight, Pituitary: 0.0030 g/100g body weight
  Mean relative organ weight, Prostate: 0.11 g/100g body weight
  Mean relative organ weight, Spleen: 0.19 g/100g body weight
  Mean relative organ weight, Testis: 0.89 g/100g body weight
male, 500 mg/kg, dosing period
  B.W. (mean): 363.5 g
  Mean absolute organ weight, Adrenal: 0.0622 g
  Mean absolute organ weight, Brain: 1.74 g
  Mean absolute organ weight, Heart: 1.31 g
  Mean absolute organ weight, Kidney: 2.67 g
  Mean absolute organ weight, Liver: 10.46 g
  Mean absolute organ weight, Lung: 1.41 g
  Mean absolute organ weight, Pituitary: 0.0119 g
  Mean absolute organ weight, Prostate: 0.49 g
  Mean absolute organ weight, Spleen: 0.69 g
  Mean absolute organ weight, Testis: 3.32 g
  Mean relative organ weight, Adrenal: 0.0171 g/100g body weight
  Mean relative organ weight, Brain: 0.55 g/100g body weight
  Mean relative organ weight, Heart: 0.36 g/100g body weight
  Mean relative organ weight, Kidney: 0.74 g/100g body weight
  Mean relative organ weight, Liver: 2.87 g/100g body weight
  Mean relative organ weight, Lung: 0.39 g/100g body weight
  Mean relative organ weight, Pituitary: 0.0033 g/100g body weight
  Mean relative organ weight, Prostate: 0.14 g/100g body weight
  Mean relative organ weight, Spleen: 0.19 g/100g body weight
  Mean relative organ weight, Testis: 0.91 g/100g body weight
[5]
  B.W. (mean): 366.0 g
  Mean absolute organ weight, Adrenal: 0.0630 g
  Mean absolute organ weight, Brain: 1.81 g
  Mean absolute organ weight, Heart: 1.33 g
  Mean absolute organ weight, Kidney: 2.63 g
  Mean absolute organ weight, Liver: 10.79 g
  Mean absolute organ weight, Lung: 1.45 g
  Mean absolute organ weight, Pituitary: 0.0113 g
  Mean absolute organ weight, Prostate: 0.45 g
  Mean absolute organ weight, Spleen: 0.74 g
  Mean absolute organ weight, Testis: 3.35 g
  Mean relative organ weight, Adrenal: 0.0172 g/100g body weight
  Mean relative organ weight, Brain: 0.54 g/100g body weight
  Mean relative organ weight, Heart: 0.37 g/100g body weight
  Mean relative organ weight, Kidney: 0.72 g/100g body weight
  Mean relative organ weight, Liver: 2.94 g/100g body weight
  Mean relative organ weight, Lung: 0.40 g/100g body weight
  Mean relative organ weight, Pituitary: 0.0031 g/100g body weight
  Mean relative organ weight, Prostate: 0.12 g/100g body weight
  Mean relative organ weight, Spleen: 0.20 g/100g body weight
  Mean relative organ weight, Testis: 0.92 g/100g body weight
[6]
  B.W. (mean): 419.4 g
  Mean absolute organ weight, Adrenal: 0.0595 g
  Mean absolute organ weight, Heart: 1.36 g
  Mean absolute organ weight, Kidney: 2.73 g
  Mean absolute organ weight, Liver: 11.62 g
  Mean absolute organ weight, Lung: 1.61 g
  Mean absolute organ weight, Prostate: 0.59 g
  Mean absolute organ weight, Spleen: 0.72 g
  Mean absolute organ weight, Testis: 3.48 g
  Mean relative organ weight, Adrenal: 0.0140 g/100g body weight
  Mean relative organ weight, Brain: 0.48 g/100g body weight
  Mean relative organ weight, Heart: 0.33 g/100g body weight
  Mean relative organ weight, Kidney: 0.65 g/100g body weight
  Mean relative organ weight, Liver: 2.76 g/100g body weight
  Mean relative organ weight, Lung: 0.38 g/100g body weight
  Mean relative organ weight, Pituitary: 0.0028 g/100g body weight
  Mean relative organ weight, Prostate: 0.14 g/100g body weight
  Mean relative organ weight, Spleen: 0.17 g/100g body weight
  Mean relative organ weight, Testis: 0.83 g/100g body weight
Up to 1,500 mg/kg/day oral, 4 weeks
  organ weight/histopathological changes: no organ weight/histopathological changes were observed
[7]
  change in body weight compared to control group: did not lead to a significant change
  death or abnormal clinical symptoms: did not cause death or abnormal clinical symptoms
